Results taken from ChEMBL document CHEMBL3792355, “Novel pyrazole derivatives with oxa/thiadiazolyl, pyrazolyl moieties and pyrazolo[4,3-d]-pyrimidine derivatives as potential antimicrobial and anticancer agents” (Bioorg Med Chem Lett, 2016).
≈ marks a conversion by molar mass, not a printed value.

Key:
Escherichia coli [1] = assay: Antimicrobial activity against Escherichia coli ATCC 25922 at 1 mg/ml incubated for 24 hrs by cup diffusion assay; type: functional; settings: ATCC 25922, 24 h, read-out: DIZ
Escherichia coli [2] = assay: Antimicrobial activity against Escherichia coli ATCC 25922 incubated for 24 hrs by CLSI/NCCLS protocol based method; type: functional; settings: ATCC 25922, 24 h
Lactococcus lactis [3] = assay: Antimicrobial activity against Streptococcus lactis ATCC 14591 at 1 mg/ml incubated for 24 hrs by cup diffusion assay; type: functional; settings: ATCC 14591, 24 h, read-out: DIZ
Lactococcus lactis [4] = assay: Antimicrobial activity against Streptococcus lactis ATCC 14591 incubated for 24 hrs by CLSI/NCCLS protocol based method; type: functional; settings: ATCC 14591, 24 h
Staphylococcus aureus [5] = assay: Antimicrobial activity against Staphylococcus aureus ATCC 25923 incubated for 24 hrs by CLSI/NCCLS protocol based method; type: functional; settings: ATCC 25923, 24 h
Pseudomonas aeruginosa [6] = assay: Antimicrobial activity against Pseudomonas aeruginosa ATCC 27853 at 1 mg/ml incubated for 24 hrs by cup diffusion assay; type: functional; settings: ATCC 27853, 24 h, read-out: DIZ
Pseudomonas aeruginosa [7] = assay: Antimicrobial activity against Pseudomonas aeruginosa ATCC 27853 incubated for 24 hrs by CLSI/NCCLS protocol based method; type: functional; settings: ATCC 27853, 24 h
Staphylococcus aureus [8] = assay: Antimicrobial activity against Staphylococcus aureus ATCC 25923 at 1 mg/ml incubated for 24 hrs by cup diffusion assay; type: functional; settings: ATCC 25923, 24 h, read-out: DIZ
Aspergillus flavus [9] = assay: Antimicrobial activity against Aspergillus flavus ATCC 23554 incubated for 24 hrs by CLSI/NCCLS protocol based method; type: functional
MCF7 = assay: Growth inhibition of human MCF7 cells incubated for 48 hrs by MTT assay; type: functional, cell-based; settings: MCF7, 48 h
Candida albicans [10] = assay: Antimicrobial activity against Candida albicans ATCC 14154 at 1 mg/ml incubated for 24 hrs by cup diffusion assay; type: functional; settings: for zone of inhibition at 1000 µg/mL: ATCC 14154, 24 h, read-out: DIZ
Candida albicans [11] = assay: Antimicrobial activity against Candida albicans ATCC 14154 incubated for 24 hrs by CLSI/NCCLS protocol based method; type: functional
HT-29 = assay: cells; settings: Homo sapiens, HT-29, 48 h
HepG2 = assay: cells; settings: Homo sapiens, HepG2, 48 h
Aspergillus flavus [12] = assay: Antimicrobial activity against Aspergillus flavus ATCC 23554 at 1 mg/ml incubated for 24 hrs by cup diffusion assay; type: functional; settings: for zone of inhibition at 1000 µg/mL: ATCC 23554, 24 h, read-out: DIZ

Compound | zone of inhibition at 1000 µg/mL (Escherichia coli [1]) | MIC (Escherichia coli [2]) | zone of inhibition at 1000 µg/mL (Lactococcus lactis [3]) | MIC (Lactococcus lactis [4]) | MIC (Staphylococcus aureus [5]) | zone of inhibition at 1000 µg/mL (Pseudomonas aeruginosa [6]) | MIC (Pseudomonas aeruginosa [7]) | zone of inhibition at 1000 µg/mL (Staphylococcus aureus [8]) | MIC (Aspergillus flavus [9]; ATCC 23554, 24 h) | IC50 (MCF7) | zone of inhibition at 1000 µg/mL (Candida albicans [10]) | MIC (Candida albicans [11]; ATCC 14154, 24 h) | IC50 (HT-29) | IC50 (HepG2) | zone of inhibition at 1000 µg/mL (Aspergillus flavus [12]) | MIC (Aspergillus flavus [9]) | inhibition zone (IZ) (Candida albicans [10]) | MIC (Candida albicans [11]) | inhibition zone (IZ) (Aspergillus flavus [12])
CO/N=C(\C(=O)N[C@@H]1C(=O)N2C(C(=O)O)=C(COC(C)=O)CS[C@H]12)c1csc(N)n1 [CEFOTAXIME] | 26 mm | 13 mg/L (≈ 28.5 µM) | 30 mm | 12 mg/L (≈ 26.3 µM) | 15 mg/L (≈ 32.9 µM) | 18 mm | 10 mg/L (≈ 22 µM) | 31 mm |  |  |  |  |  |  |  |  |  |  | 
Cc1nn(C(=O)c2[nH]nc(-c3ccc(Cl)cc3)c2N)c(C)c1Cl | 15 mm | 15 mg/L (≈ 42.8 µM) | 16 mm | 5 mg/L (≈ 14.3 µM) | 10 mg/L (≈ 28.6 µM) | 13 mm | 10 mg/L (≈ 28.6 µM) | 15 mm | 50 mg/L (≈ 143 µM) | 0.78 µM | 16 mm | 45 mg/L (≈ 128 µM) | 1.1 µM | 0.97 µM | 20 mm |  |  |  | 
Nn1c(=S)[nH]c2c(-c3ccc(Cl)cc3)n[nH]c2c1=O | 8 mm | 20 mg/L (≈ 68.1 µM) | 15 mm | 20 mg/L (≈ 68.1 µM) | 20 mg/L (≈ 68.1 µM) | 10 mm | 15 mg/L (≈ 51.1 µM) | 20 mm | 40 mg/L (≈ 136 µM) | 0.84 µM | 15 mm | 40 mg/L (≈ 136 µM) | 1.33 µM | 1.55 µM | 25 mm |  |  |  | 
Cc1nc2c(-c3ccc(Cl)cc3)n[nH]c2c2nnnn12 | 10 mm | 10 mg/L (≈ 35 µM) | 20 mm | 10 mg/L (≈ 35 µM) | 20 mg/L (≈ 70 µM) | 8 mm | 15 mg/L (≈ 52.5 µM) | 18 mm |  | 0.13 µM | 22 mm | 22 mg/L (≈ 77 µM) | 0.29 µM | 0.36 µM | 26 mm |  |  |  | 
NC(=S)NNC(=O)c1[nH]nc(-c2ccc(Cl)cc2)c1N | 22 mm | 25 mg/L (≈ 80.4 µM) | 30 mm | 35 mg/L (≈ 113 µM) | 30 mg/L (≈ 96.5 µM) | 16 mm | 40 mg/L (≈ 129 µM) | 34 mm | 45 mg/L (≈ 145 µM) | 4.35 µM | 20 mm | 50 mg/L (≈ 161 µM) | 5.59 µM | 4.06 µM | 25 mm |  |  |  | 
Cc1cc(C)n(C(=O)c2[nH]nc(-c3ccc(Cl)cc3)c2N)n1 | 22 mm | 20 mg/L (≈ 63.3 µM) | 30 mm | 15 mg/L (≈ 47.5 µM) | 25 mg/L (≈ 79.2 µM) | 20 mm | 15 mg/L (≈ 47.5 µM) | 32 mm |  | 1.45 µM | 18 mm |  | 1.45 µM | 1.62 µM | 26 mm |  |  |  | 
Cc1csc(NNC(=O)c2[nH]nc(-c3ccc(Cl)cc3)c2N)n1 | 16 mm | 20 mg/L (≈ 57.3 µM) | 22 mm | 10 mg/L (≈ 28.7 µM) | 15 mg/L (≈ 43 µM) | 12 mm | 15 mg/L (≈ 43 µM) | 28 mm | 45 mg/L (≈ 129 µM) | 0.22 µM | 26 mm | 40 mg/L (≈ 115 µM) | 0.42 µM | 0.56 µM | 28 mm |  |  |  | 
Cc1nc(Cl)c2[nH]nc(-c3ccc(Cl)cc3)c2n1 | 12 mm | 50 mg/L (≈ 179 µM) | 15 mm | 35 mg/L (≈ 125 µM) | 40 mg/L (≈ 143 µM) | 10 mm | 35 mg/L (≈ 125 µM) | 18 mm |  | 1.77 µM | 22 mm | 22 mg/L (≈ 78.8 µM) | 1.52 µM | 1.62 µM | 25 mm |  |  |  | 
NYSTATIN |  |  |  |  |  |  |  |  |  |  |  |  |  |  |  | 25 mg/L | 25 mm | 20 mg/L | 30 mm
CC1=NN(C(=O)c2[nH]nc(-c3ccc(Cl)cc3)c2N)C(=O)C1 | 22 mm | 25 mg/L (≈ 78.7 µM) | 26 mm | 20 mg/L (≈ 62.9 µM) | 30 mg/L (≈ 94.4 µM) | 20 mm | 20 mg/L (≈ 62.9 µM) | 32 mm | 40 mg/L (≈ 126 µM) | 2.54 µM | 18 mm | 35 mg/L (≈ 110 µM) | 2.78 µM | 2.53 µM | 35 mm |  |  |  | 
